We go through 1 compound from article PMC8868285, “Pharmacological Inhibition of Epac1 Averts Ferroptosis Cell Death by Preserving Mitochondrial Integrity” (Antioxidants, 2022).

For test [1], the system named is HT-22 cells. Put plainly: Soluble ROS, CM-DCF FACS. Format: cell-based, mouse. The protocol:
Soluble ROS was evaluated by CM-DCF fluorescent dye (Invitrogen, Oregon City, OR, USA). CM-DCF passively diffuses into cells, and reacts with glutathione and other thiols following cleavage by intracellular esterases, which in turn exposes the thiol-reactive chloromethyl group. The oxidation that follows results in a fluorescent adduct that is ensnared within the cell. The higher the fluorescence, the more cellular ROS is produced in the cells.

In test [2] the test system is HT-22 cells. The test can be described thus: Cell death assessment, FACS analysis of PI staining.
Protocol: (§1) Flow cytometry analysis using the CytoFLEXS benchtop flow cytometer (Beckman Coulter Life Sciences, Indianapolis, IN, USA) was used to evaluate intracellular parameters that are associated with not only oxidative stress but also mitochondrial dysfunction, and cell death. HT-22 cells (40,000 cells/well) seeded in 24-well plates were treated with various conditions. Treatment groups included: control condition (DMSO 1%), erastin 1 µM or 1.5 µM, CE3F4 100 µM, and co-treatment of erastin and CE3F4. Three separate wells were analyzed for each condition and the same number of counts (10,000/well) were measured by flow cytometry. At least three independent experiments were performed, and the Kaluza Analysis 1.5 software was employed for quantification of data.
The amount of cell death after stimulation with erastin for 16–17 h was assessed by incubating trypsonized HT-22 cell suspension with propidium iodide (PI) (Invitrogen, Oregon City, OR, USA, #V13242, Lot #2008168) in a binding buffer. Incubation with the dye was for 30 min at RT. Fluorescence was detected at 494/518 and 535/617 for FITC and PI respectively.
Test [3] deals with HT-22 cells. The test can be described thus: Mitochondrial membrane potential, TMRE FACS. Particulars: for effect on erastin-induced ΔΨm loss: no significant difference to control.
Protocol: as §1
Staining with TMRE™ dye (tetramethylrhodamine-ethyl ester; Invitrogen, Oregon City, OR, USA, #T669) was used to determine loss of mitochondrial membrane potential (MMP) (ΔΨm). […] Collected cells were incubated for 20 min with TMRE 0.2 μM at 37 °C. Fluorescence excitation and detection were done at 488 nm 690/50 nm respectively.
For test [4], the system named is isolated mitochondria from HT-22 cells. Put plainly: High-resolution respirometry (Oroboros) of isolated mitochondria. More on the design: species or system mouse. The method, then: Mitochondria were isolated from harvested HT-22 cells (4–8 × 10^7 cultivated in T75 flasks) using a semi-automated pump-controlled cell rupture system (PCC) (0.71 mL/min) with syringes (SGE, Trajan© Scientific, Ringwood, Australia) attached to a cell homogenizer (Isobiotech, EMBL, Heidelberg, Germany) (bead size of 10 μm suitable for HT-22 cells) and superimposed on a pump (ProSense B.V, Oosterhout, The Netherlands, #NE1000). Collected samples were centrifuged at 800 rpm for 10 min at 4 °C. The supernatant was further centrifuged at 9000× g for 10 min at 4 °C. The resulting pellet was the crude mitochondria. Finally, the mitochondria were suspended in an isolation buffer (HEPES 20 mM, sucrose 250 mM EDTA 3 mM, pH 7.5) for subsequent experiments. The whole procedure was executed on ice.
The protein concentration of isolated mitochondria was determined using the Pierce™ BCA Protein Assay Kit (Pierce™ BCA Protein Assay Kit, Thermo Scientific, Rockford, IL, USA, #23225). Respiration of the isolated mitochondria from HT-22 cells was analyzed using the high-resolution respirometry oxygraph O2K (Oroboros Systems, Innsbruck, Austria). The isolated mitochondria (200 μg) prepared as previously described, were treated with either CE3F4, ESI-05, ethanol, or DMSO as appropriate for 25 min, followed by mitochondrial respiration measurements. Mitochondrial state 1 was determined by continuous stirring at 750 rpm in 1 mL of MiR05 buffer (MgCl2 3 mM, lactobionic acid 60 mM, EGTA 0.5 mM taurine 20 mM, KH2PO4 10 mM, D-Sucrose 110 mM, HEPES 20 mM, BSA, essential fatty acid-free1 g/L, pH adjusted to 7.4). DatLab software (Oroboros Systems, Innsbruck, Austria) was used to record real-time oxygen flux per tissue mass (pmol O2. s^−1 × mg^−1) at 37 °C and to perform oxygen polarography. States were described as, State 2: a non-phosphorylating respiration state which was assessed by addition of complex-I linked substrates, 5 mM pyruvate (Sigma–Aldrich Chemie GmbH, Steinheim, Germany #P-2256), and 2 mM malate (Sigma–Aldrich Chemie GmbH, Steinheim, Germany, #374318); State 3: the oxidative-phosphorylation capacity (OXPHOS) state, of complex-I linked activity or basal respiration was achieved by adding a saturating concentration of 0.8 mM ADP (Sigma–Aldrich Chemie GmbH, Steinheim, Germany, #A5285), this allowed for calculation of ADP-coupled repiration; State 4: Achieved by subsequent addition of oligomycin 0.1 μM/mL (Sigma–Aldrich Chemie GmbH, Steinheim, Germany, #O4876) following state 3, oligomycin blocks the ATP-synthase, thereby inhibiting proton passage; State 3U: Was assessed by incremental steps of 1 μM addition of FCCP—theprotonophore carbonyl cyanide 4-(trifluoromethoxy) phenylhydrazone (Sigma–Aldrich Chemie GmbH, Steinheim, Germany, #C2920), this allowed the calculation of the reserve capacity of the Electron Transport Chain (ETC); Finally, sodium dithionite (DTT, Sigma–Aldrich Chemie GmbH, Steinheim, Germany, #15,795-3) was added to reduce all residual oxygen that was present in the chamber and to calibrate the oxygen content in the chamber. The O2 slope (pmol × (mL/s)) of isolated mitochondria was the oxygen concentration and also the initial derivate of the oxygen concentration—a derivative of oxygen consumption. Measurements were recorded in intervals of 2 s by using a background correction after calibration of the polarographic oxygen sensors.

The test system of test [5] is HT-22 cells. The test can be described thus: Mitochondrial morphology (MitoTracker Deep Red, categories I-III). It counts as cell-based, mouse. The method, then: Mitochondrial morphology was assessed using imaging of HT-22 cells stained with MitoTracker™Deep Red FM (Invitrogen, Oregon City, OR, USA, #M22426). Cells were treated with either erastin 1 µM, CE3F4 100 µM, or co-treated with erastin 1 µM and CE3F4 100 μM for 18 h. After the treatment, cells were incubated with 200 nM MitoTracker™Deep Red FM for 30 min at 37 °C. Untreated cells were included as controls. 4% paraformaldehyde (PFA) was used for fixation and detection of the MitoTracker fluorescence was achieved by 620 nm (excitation) and 700 ± 75 nm (detection). 500 cells per condition were counted and grouped into three different categories, based on their mitochondrial morphology/shape. The analysis and categorization of mitochondria was done by an investigator without previous knowledge of the various experimental conditions. Category I included healthy cells with mitochondria that form an elongated tubular network that is distributed equally throughout the cytosol. It could also include short mitochondria, but distributed in the cytosol. On the other hand, Category II included cells which contained large, and fragmented/granulated mitochondria around the nucleus. […] Category III represented damaged and dying cells with observed small rounded mitochondria of varying sizes and in proximity to the nucleus.. At least three independent experiments were performed.

Each structure is given as a SMILES string.

Regarding `CC1CCc2c(cc(Br)c(F)c2Br)N1C=O` (stereo not shown) [CE3F4], in the test with HT-22 cells [1] (100 μM CE3F4 + erastin vs erastin alone, not restored to control levels), the “intracellular ROS production (CM-DCF)” value is on record as “significant decrease in intracellular ROS production”. For the same compound, the “total intracellular ROS production (CM-DCF)” value in the test with HT-22 cells [1] (100 μM CE3F4 alone) is “did not influence the amount of total intracellular ROS production”. Besides, the “effect on erastin-induced cell death (PI staining)” value with HT-22 cells [2] (co-treatment 30 μM CE3F4 + erastin 1 μM) and in the test on HT-22 cells [2] (co-treatment 100 μM CE3F4 + erastin 1 μM) was “markedly attenuated” throughout. Moreover, the “effect on erastin-induced ΔΨm loss” value in the test with HT-22 cells [3] (100 µM CE3F4 + erastin 1 μM) and with HT-22 cells [3] (100 µM CE3F4 + erastin 1.5 μM) was “significantly attenuated ΔΨm loss” in each case. For the same compound, the “mitochondrial membrane potential (ΔΨm)” value in the test on HT-22 cells [3] (CE3F4 alone) is recorded as “slight hyperpolarization”. The ADP-coupled respiration entry in test [4] (30 μM CE3F4) and in test [4] (100 µM CE3F4) was “no significant differences” each time. The “mitochondrial respiration states (2, 3, 4, 3U)” value in test [4] (CE3F4 30 μM and 100 μM, 25 min) is on record as “no significant effect on any mitochondrial respiration states”. Further, the “mitochondrial morphology, category III” value in the test on HT-22 cells [5] (30 µM CE3F4 + erastin 1 μM vs erastin alone) was “significant decrease of category III mitochondrial fragmentation”. Also, the mitochondrial morphology result is “completely abolished the effects of erastin on mitochondrial morphology” in the test on HT-22 cells [5] (100 μM CE3F4 + erastin 1 μM) and “did not alter mitochondrial morphology” with HT-22 cells [5] (CE3F4 alone (100 µM)).
